According to patent publication US10301284B2, “Therapeutic inhibitory compounds” (LifeSci Pharmaceuticals, Inc., priority 2016, dated 2019):

Molecular target: human Plasma Kallikrein (Homo sapiens (Human), UniProt P03952)
Experiment: In vitro enzyme inhibition of human plasma kallikrein (Pro-Phe-Arg-AMC cleavage)
Assay type: biochemical
Conditions: human plasma kallikrein, PFR-AMC substrate, 37° C.; read-out: hPK IC50
Procedure: The ability of the compounds disclosed herein to inhibit human plasma kallikrein activity was quantified according to the procedures below.
A 10 mM solution of the test compound was made in DMSO. This solution was serially diluted 1:5 in DMSO to yield 2000, 400, 80, 16, 3.2, 0.64, 0.128, 0.0256 and 0.00512 μM compound test solutions. A control tube containing only DMSO is included. 16 μL of each compound test solution was combined with 384 μL of assay buffer (50 mM Tris-HCl pH 7.5, 150 mM NaCl, 0.01% Triton X-100) to yield a “4× test compound buffer stock”.
Separately, a 40 nM solution of human Plasma Kallikrein (Abcam) and a 93.6 μM solution Pro-Phe-Arg-AMC (Bachem) were made using assay buffer. These solutions are hereby referred to as 4×hPK and 2×PFR-AMC, respectively.
60 μL of each 4× test compound buffer stock was combined with 60 μL of 4×hPK to yield 120 μL of “2× test compound buffer stock/2×hPK”. 50 μL was removed from this mixture and placed into duplicate wells on a Microfluor 1Black U-bottom microtiter plate (Thermo Scientific). This plate was incubated for 5 minutes at 37° C. To each well, 50 μL of pre-warmed 2×PFR-AMC was added to start the enzymatic reaction. Cleavage of PFR-AMC was monitored in a Biotek Synergy H4 reader set at 37° C. Readings are taken every 43 seconds for 1 hour. The highest mean velocity over 20 reads (˜15 minutes) is used to calculate the IC50. The IC50 is calculated using the Gen5 (Biotek Instruments).
The ability of the compounds listed in Table 2 to inhibit human plasma kallikrein activity was determined.

human Plasma Kallikrein, sequence (P03952 391-638 limits assumed): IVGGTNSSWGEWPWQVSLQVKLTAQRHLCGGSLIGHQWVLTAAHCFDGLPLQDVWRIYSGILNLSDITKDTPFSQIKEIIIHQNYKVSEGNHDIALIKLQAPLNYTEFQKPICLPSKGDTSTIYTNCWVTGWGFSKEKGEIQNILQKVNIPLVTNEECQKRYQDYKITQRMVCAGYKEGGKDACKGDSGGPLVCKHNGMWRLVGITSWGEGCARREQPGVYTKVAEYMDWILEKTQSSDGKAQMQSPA
human Plasma Kallikrein, sequence (P03952 20-390 partner limits assumed): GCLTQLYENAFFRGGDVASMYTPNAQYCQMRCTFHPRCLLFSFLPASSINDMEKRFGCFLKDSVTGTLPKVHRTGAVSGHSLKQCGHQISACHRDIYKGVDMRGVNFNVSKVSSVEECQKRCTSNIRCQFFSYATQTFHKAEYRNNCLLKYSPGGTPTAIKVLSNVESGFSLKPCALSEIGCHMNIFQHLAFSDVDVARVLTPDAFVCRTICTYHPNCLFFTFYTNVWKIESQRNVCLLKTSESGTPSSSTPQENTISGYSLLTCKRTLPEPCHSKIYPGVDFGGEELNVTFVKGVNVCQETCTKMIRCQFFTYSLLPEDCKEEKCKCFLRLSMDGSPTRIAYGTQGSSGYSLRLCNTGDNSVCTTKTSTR

IC50 [nM] | SMILES
100 to 1000 | Cc1nc(N)ccc1CNC(=O)c1nnc(Cc2ccc3ncc(Cl)cc3c2)o1 [Example 79, N-((6-amino-2-methylpyridin-3-yl)methyl)-5-((3-chloroquinolin-6-yl)methyl)-1,3,4-oxadiazole-2-carboxamide]
> 10000 | Cc1cc(N)nc(C)c1CNC(=O)c1cnc(C(=O)c2ccc3ncc(Cl)cc3c2)o1 [Example 80, N-((6-amino-2,4-dimethylpyridin-3-yl)methyl)-2-(3-chloroquinoline-6-carbonyl)oxazole-5-carboxamide]
100 to 1000 | Cc1nc(N)ccc1CNC(=O)c1coc(Cc2ccc3ncc(Cl)cc3c2)n1 [Example 83, N-((6-amino-2-methylpyridin-3-yl)methyl)-2-((3-chloroquinolin-6-yl)methyl)oxazole-4-carboxamide]
< 100 | Cc1nc(N)ccc1CNC(=O)c1ncc(Cc2ccc3ncc(Cl)cc3c2)o1 [Example 84, N-((6-amino-2-methylpyridin-3-yl)methyl)-5-((3-chloroquinolin-6-yl)methyl)oxazole-2-carboxamide]
< 100 | Cc1nc(N)ccc1CNC(=O)c1cn(Cc2ccc3ncc(Cl)cc3c2)nc1C [Example 85, N-((6-amino-2-methylpyridin-3-yl)methyl)-1-((3-chloroquinolin-6-yl)methyl)-3-methyl-1H-pyrazole-4-carboxamide]
< 100 | Cc1cc(N)nc(C)c1CNC(=O)c1oc(Cc2ccc3ncc(Cl)cc3c2)nc1C#N [Example 87, N-((6-amino-2,4-dimethylpyridin-3-yl)methyl)-2-((3-chloroquinolin-6-yl)methyl)-4-cyanooxazole-5-carboxamide]
< 100 | Cc1cc(N)nc(C)c1CNC(=O)c1cnc(Cc2ccc3ncc(Cl)cc3c2)o1 [Example 89, N-((6-amino-2,4-dimethylpyridin-3-yl)methyl)-2-((3-chloroquinolin-6-yl)methyl)oxazole-5-carboxamide]
< 100 | Cc1cc(N)nc(C)c1CNC(=O)c1cn(Cc2ccc3ncc(Cl)cc3c2)nc1C(F)F [Example 91, N-((6-amino-2,4-dimethylpyridin-3-yl)methyl)-1-((3-chloroquinolin-6-yl)methyl)-3-(difluoromethyl)-1H-pyrazole-4-carboxamide]

Second part, the compound before the results:

SMILES | IC50 [nM]
Cc1nc(N)ccc1CNC(=O)c1cn(Cc2ccc3ncc(Cl)cc3c2)nc1C#N [Example 77, N-((6-amino-2-methylpyridin-3-yl)methyl)-1-((3-chloroquinolin-6-yl)methyl)-3-cyano-1H-pyrazole-4-carboxamide] | < 100
Cc1cc(N)nc(C)c1CNC(=O)c1nnc(Cc2cc(C(C)(C)O)c3ncc(Cl)cc3c2)o1 [Example 86, N-((6-amino-2,4-dimethylpyridin-3-yl)methyl)-5-((3-chloro-8-(2-hydroxypropan-2-yl)quinolin-6-yl)methyl)-1,3,4-oxadiazole-2-carboxamide] | < 100
Cc1nc(N)ccc1CNC(=O)c1oc(Cc2ccc3ncc(Cl)cc3c2)nc1C#N [Example 88, N-((6-amino-2-methylpyridin-3-yl)methyl)-2-((3-chloroquinolin-6-yl)methyl)-4-cyanooxazole-5-carboxamide] | 100 to 1000
Cc1nc(N)ccc1CNC(=O)c1cnc(Cc2ccc3ncc(Cl)cc3c2)o1 [Example 90, N-((6-amino-2-methylpyridin-3-yl)methyl)-2-((3-chloroquinolin-6-yl)methyl)oxazole-5-carboxamide] | < 100
Cc1cc(N)nc(C)c1CNC(=O)c1cn(Cc2ccc3ncc(Cl)cc3c2)nc1CO [Example 92, N-((6-amino-2,4-dimethylpyridin-3-yl)methyl)-1-((3-chloroquinolin-6-yl)methyl)-3-(hydroxymethyl)-1H-pyrazole-4-carboxamide] | < 100
Cc1cc(N)nc(C)c1CNC(=O)c1cn(Cc2ccc3ncc(Cl)cc3c2)nc1CF [Example 93, N-((6-amino-2,4-dimethylpyridin-3-yl)methyl)-1-((3-chloroquinolin-6-yl)methyl)-3-(fluoromethyl)-1H-pyrazole-4-carboxamide] | < 100
